Data as given in ChEMBL document CHEMBL1201862, “PubChem BioAssay data set” (2004).
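Values below derive from 48-hour exposures of cells grown in 96-well plates, with endpoints linearly interpolated between the two concentrations bracketing the appropriate inhibition level. Here, GI50 denotes the concentration required for 50% inhibition of growth.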 Active and inactive are the calls of the source. Rule as the data show it: active = GI50 up to about 1.1 µM and inactive = higher. Peptide text beside a SMILES is read from it. * marks the point of attachment. Cbz = O=C(OCc1ccccc1)*; OBn = c1ccc(CO*)cc1

Columns and labels:
Experiment in all cases: growth of human tumour cells (NCI), 48 h
[1] = test system: HCT-15
[2] = test system: UO-31
[3] = test system: PC-3
[4] = test system: NCI/ADR-RES
[5] = test system: Hs-578T
[6] = test system: SK-OV-3
[7] = test system: SW-620
[8] = test system: DU-145
[9] = test system: NCI-H226
[10] = test system: OVCAR-3
[11] = test system: SK-MEL-2
[12] = test system: OVCAR-8
[13] = test system: KM12
[14] = test system: HT-29
[15] = test system: MDA-MB-435
[16] = test system: A498
[17] = test system: MDA-MB-231
[18] = test system: SN12C
[19] = test system: UACC-257
[20] = test system: HOP-92

Compound	GI50 [1] [µM]	GI50 [2]	GI50 [3]	GI50 [4]	GI50 [5]	GI50 [6]	GI50 [7]	GI50 [8]	GI50 [9]	GI50 [10]	GI50 [11]	GI50 [12]	GI50 [13]	GI50 [14]	GI50 [15]	GI50 [16]	GI50 [17]	GI50 [18]	GI50 [19]	GI50 [20]
Cc1cc(C(=O)CCCCOc2ccc(C3=NCCO3)cc2)c(C)n1C	38.6	39.9 µM (inactive)	19.9 µM (inactive)	26.7 µM (inactive)	98.2 µM (inactive)	49.7 µM (inactive)	33.2 µM (inactive)	24.3 µM (inactive)	29.3 µM (inactive)	38.8 µM (inactive)	28.7 µM (inactive)	33.2 µM (inactive)	38.5 µM (inactive)	39.1 µM (inactive)	24.7 µM (inactive)	34.6 µM (inactive)	> 100 µM (inactive)	56.5 µM (inactive)	3.98 µM (inactive)	–
COc1ccc(OC)c2cc(Cc3ccc(N(C)C)cc3)c(=O)c(Cc3ccc(N(C)C)cc3)cc12	> 100	> 100 µM (inactive)	62.1 µM (inactive)	30.2 µM (inactive)	25.5 µM (inactive)	> 100 µM (inactive)	> 100 µM (inactive)	> 100 µM (inactive)	47.3 µM (inactive)	> 100 µM (inactive)	–	32.9 µM (inactive)	> 100 µM (inactive)	> 100 µM (inactive)	> 100 µM (inactive)	26.4 µM (inactive)	74.5 µM (inactive)	> 100 µM (inactive)	> 100 µM (inactive)	> 100 µM (inactive)
CSc1c(C(=O)Nc2ccccc2)c(N)n(N)c(=O)c1C#N	> 100	> 100 µM (inactive)	> 100 µM (inactive)	> 100 µM (inactive)	> 100 µM (inactive)	> 100 µM (inactive)	> 100 µM (inactive)	> 100 µM (inactive)	> 100 µM (inactive)	> 100 µM (inactive)	> 100 µM (inactive)	> 100 µM (inactive)	> 100 µM (inactive)	> 100 µM (inactive)	> 100 µM (inactive)	30.5 µM (inactive)	> 100 µM (inactive)	> 100 µM (inactive)	> 100 µM (inactive)	–
CC1=C([S+]([O-])c2ccc(C)cc2)CCC2(CCCCO2)O1 (centres undefined)	> 100	> 100 µM (inactive)	> 100 µM (inactive)	> 100 µM (inactive)	> 100 µM (inactive)	–	> 100 µM (inactive)	> 100 µM (inactive)	> 100 µM (inactive)	> 100 µM (inactive)	64.3 µM (inactive)	> 100 µM (inactive)	> 100 µM (inactive)	> 100 µM (inactive)	> 100 µM (inactive)	> 100 µM (inactive)	> 100 µM (inactive)	> 100 µM (inactive)	> 100 µM (inactive)	–
COC(=O)Cc1ccc2c(cnn2-c2ccccc2)c1OC	> 10	–	> 10 µM (inactive)	> 10 µM (inactive)	> 10 µM (inactive)	> 10 µM (inactive)	> 10 µM (inactive)	> 10 µM (inactive)	> 10 µM (inactive)	> 10 µM (inactive)	> 10 µM (inactive)	> 10 µM (inactive)	> 10 µM (inactive)	> 10 µM (inactive)	> 10 µM (inactive)	> 10 µM (inactive)	> 10 µM (inactive)	> 10 µM (inactive)	> 10 µM (inactive)	–
Cc1cc2c(cc1Cl)SC(NN(C)C)=NS2(=O)=O	> 10	–	> 10 µM (inactive)	> 10 µM (inactive)	> 10 µM (inactive)	> 10 µM (inactive)	> 10 µM (inactive)	> 10 µM (inactive)	> 10 µM (inactive)	> 10 µM (inactive)	> 10 µM (inactive)	> 10 µM (inactive)	> 10 µM (inactive)	> 10 µM (inactive)	> 10 µM (inactive)	> 10 µM (inactive)	> 10 µM (inactive)	> 10 µM (inactive)	> 10 µM (inactive)	–
O=C1[C@H](c2ccccc2)C2c3ccccc3CCN12 (some centres undefined)	> 10	> 100 µM (inactive)	> 10 µM (inactive)	> 10 µM (inactive)	> 10 µM (inactive)	> 10 µM (inactive)	> 10 µM (inactive)	> 10 µM (inactive)	> 10 µM (inactive)	> 10 µM (inactive)	> 10 µM (inactive)	> 10 µM (inactive)	> 10 µM (inactive)	> 10 µM (inactive)	> 10 µM (inactive)	> 10 µM (inactive)	> 10 µM (inactive)	> 10 µM (inactive)	> 10 µM (inactive)	–
CCC1C(=O)C(O)[C@H]2[C@@H]3C(O)CC4=CC(=O)CC[C@]4(C)[C@H]3CC[C@]12C (some centres undefined)	> 50	> 50 µM (inactive)	> 50 µM (inactive)	> 50 µM (inactive)	> 50 µM (inactive)	> 50 µM (inactive)	> 50 µM (inactive)	> 50 µM (inactive)	–	> 50 µM (inactive)	> 50 µM (inactive)	> 50 µM (inactive)	> 50 µM (inactive)	> 50 µM (inactive)	> 50 µM (inactive)	> 50 µM (inactive)	> 50 µM (inactive)	> 50 µM (inactive)	> 50 µM (inactive)	> 50 µM (inactive)
CC(C)(C)c1ccc2c(c1)C#Cc1cc(C(C)(C)C)ccc1OCCCO2	> 100	> 100 µM (inactive)	> 100 µM (inactive)	> 100 µM (inactive)	> 100 µM (inactive)	–	> 100 µM (inactive)	> 100 µM (inactive)	> 100 µM (inactive)	> 100 µM (inactive)	> 100 µM (inactive)	> 100 µM (inactive)	> 100 µM (inactive)	> 100 µM (inactive)	> 100 µM (inactive)	> 100 µM (inactive)	> 100 µM (inactive)	> 100 µM (inactive)	> 100 µM (inactive)	–
C#Cc1cc(Br)c(OC(=O)C(C)(C)C)c(-c2cc(C#C)cc(Br)c2OC(=O)C(C)(C)C)c1	32.6	–	50.2 µM (inactive)	> 100 µM (inactive)	53.6 µM (inactive)	> 100 µM (inactive)	27 µM (inactive)	62.4 µM (inactive)	–	80 µM (inactive)	49 µM (inactive)	65.3 µM (inactive)	37.9 µM (inactive)	22.1 µM (inactive)	45.8 µM (inactive)	57.7 µM (inactive)	35.1 µM (inactive)	53 µM (inactive)	36.1 µM (inactive)	36.9 µM (inactive)
COC(=O)CNC(=O)C(C)NC(=O)C(CC(=O)OCc1ccccc1)NC(=O)OCc1ccccc1 (stereo not drawn) (Cbz-Asp(OBn)-Ala-Gly-OMe; configuration not given here)	53.7	19.1 µM (inactive)	24 µM (inactive)	67.1 µM (inactive)	43.9 µM (inactive)	> 100 µM (inactive)	35.7 µM (inactive)	93.5 µM (inactive)	36.1 µM (inactive)	75 µM (inactive)	65.5 µM (inactive)	81.8 µM (inactive)	73.6 µM (inactive)	65.5 µM (inactive)	37.1 µM (inactive)	–	6.64 µM (inactive)	91.6 µM (inactive)	32.4 µM (inactive)	66.5 µM (inactive)
